Source: publication PMC8584989 (International Journal of Molecular Sciences, 2021)
Read-outs that look alike come from different tables or passages of the source.

Key:
A431-ABCC1 cells = test: MTT proliferation assay (comparative viability); type: cell-based; conditions: single drug, 48 h
Method: (§1) These colorimetric assays were used in various studies presented in this paper (prior induction studies, MDR reversal experiments and comparative viability assays) and were performed as reported previously. […] In MTT experiments, cells were seeded on a 96-well culture plate at densities (in number of cells/well) of 1.3 × 10^4 for MDCKII-par, MDCKII-ABCB1 and MDCKII-ABCG2; 1.2 × 10^4 for A431-par, A431-ABCB1, A431-ABCG2 and A431-ABCC1; 1.2 × 10^4 for NCI-H1299; 1.0 × 10^4 for A459; 2.0 × 10^4 for Caco-2; 5.0 × 10^4 for LS174T; and 1.0 × 10^4 for primary NSCLC explants. On the other hand, for XTT cells were seeded with densities 2.0 × 10^4 for HL60-par, HL60-ABCB1, HL60-ABCG2 and HL60-ABCC1 cells/well on 96-well plates. […] Following 48 h incubation with drugs, Opti-MEM solutions of MTT or XTT (1 mg/mL) with phenazine methosulfate solution (7.50 μg/mL; only for XTT) was added and the cells were incubated for 1 h with the exception of HL60s that were incubated for 5 h.

CYP2C19 = biological target: T1, CYP2C19 (Homo sapiens, UniProt P33261); test: Vivid CYP450 Screening Kit, recombinant CYP2C19; type: in vitro ADME; conditions: recombinant enzyme; read-out: CYP2C19 inhibition IC50
T1 construct: purchased Thermo Fisher Scientific
Method: (§2) CYP inhibitory assay was performed using Vivid CYP450 screening kit as described previously. The kits consist of microsomal fraction containing human CYP isoforms, human CYP reductase and in several cases cytochrome b5. Experiments were performed following the manufacturer’s protocol on black 96-well plates using kinetic mode. […] Then, the master mix (CYP isoenzyme with an NADPH regeneration system in buffer) was added in each well and plate was pre-incubated for 10 min. The reaction was started with the mixture of NADP^+ and Vivid substrate and the fluorescence of samples was measured in 1 min interval for 60 min using an Infinite M200 Pro microplate reader (Tecan, Männedorf, Switzerland). Data from linear phase (15 min) were used for data evaluation.

ABCB1 = ABCB1 (Homo sapiens, UniProt P08183); conditions: DI study in healthy subjects; cited from earlier work
CYP3A5 = biological target: T2, CYP3A5 (Homo sapiens, UniProt P20815); test: Vivid CYP450 Screening Kit, recombinant CYP3A5; type: in vitro ADME
T2 construct: purchased Thermo Fisher Scientific
Method: as §2

[1] = tested on: KB drug resistant cell lines; conditions: in vitro KB drug resistant cell lines; cited from earlier work
HL60-par cells = test: XTT proliferation / drug combination assay; type: cell-based; conditions: 48 h, read-out: HL60-par IC50
Method: as §1
(§3) Based on the computed CI values, the effects of drug combinations were classified as synergistic (CI < 0.9), additive (0.9 < CI < 1.1) or antagonistic (CI > 1.1).

HL60-ABCC1 cells = test: XTT proliferation assay (comparative viability); type: cell-based; conditions: single drug, 48 h
Method: as §1

CYP2D6 = biological target: T3, CYP2D6 (Homo sapiens, UniProt P10635); test: Vivid CYP450 Screening Kit, recombinant CYP2D6; type: in vitro ADME
T3 construct: purchased Thermo Fisher Scientific
Method: as §2

CYP3A4 = conditions: DI study in healthy subjects; cited from earlier work
A431-par cells = test: MTT proliferation / drug combination assay; type: cell-based; conditions: 48 h, read-out: A431-par IC50
Method: as §1, §3

[2] = MTT proliferation / drug combination assay; conditions: human
[3] = MTT proliferation / drug combination assay; conditions: human; remark: listed apart in the source
[4] = recommended dosing of 500 mg daily; read-out: steady state Cmax; cited from earlier work
[5] = XTT proliferation / drug combination assay; conditions: human
ABCG2 = biological target: T4, ABCG2 (Homo sapiens, UniProt Q9UNQ0); test: Inhibitory accumulation assay in MDCKII-ABCG2 cells; type: cell-based
T4 sequence (Q9UNQ0 1-655): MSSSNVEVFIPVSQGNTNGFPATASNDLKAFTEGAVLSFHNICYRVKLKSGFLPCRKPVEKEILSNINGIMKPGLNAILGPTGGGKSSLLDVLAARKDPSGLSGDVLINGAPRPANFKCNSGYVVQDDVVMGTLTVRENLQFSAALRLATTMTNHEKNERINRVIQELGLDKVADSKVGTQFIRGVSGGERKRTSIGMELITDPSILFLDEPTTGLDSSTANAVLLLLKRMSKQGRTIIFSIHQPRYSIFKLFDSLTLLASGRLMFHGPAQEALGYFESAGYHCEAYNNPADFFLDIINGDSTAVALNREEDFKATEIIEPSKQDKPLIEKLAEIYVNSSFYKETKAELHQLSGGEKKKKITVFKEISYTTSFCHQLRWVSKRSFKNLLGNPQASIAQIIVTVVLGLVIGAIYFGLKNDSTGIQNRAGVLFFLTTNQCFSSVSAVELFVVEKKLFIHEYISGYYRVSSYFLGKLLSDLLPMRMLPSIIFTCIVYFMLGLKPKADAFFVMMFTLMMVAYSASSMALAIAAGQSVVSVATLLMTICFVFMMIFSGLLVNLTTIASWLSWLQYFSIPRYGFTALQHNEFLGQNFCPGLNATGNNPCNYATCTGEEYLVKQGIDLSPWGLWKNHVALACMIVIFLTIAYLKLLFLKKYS
Method: Accumulation assays were performed as described previously. […] The daunorubicin and mitoxantrone accumulation assays were performed in above mentioned cell lines and were also adopted to primary NSCLC cultures. […] Cells were incubated up to 70-80% confluence for approximately 24 h. […] The cells there trypsinized on ice, resuspended with 2% FBS in cold PBS solution and then fluorescence was detected using flow cytometer (BD FACSCanto II, Allschwil, Switzerland). […] For data presentation, the ratios of relative fluorescence units (RFUs) from treated samples to RFUs from vehicle-treated (control) cells were computed generating “relative substrate accumulation”.

CYP2B6 = biological target: T5, CYP2B6 (Homo sapiens, UniProt P20813); test: Vivid CYP450 Screening Kit, recombinant CYP2B6; type: in vitro ADME; conditions: recombinant enzyme; read-out: CYP2B6 inhibition IC50
T5 construct: purchased Thermo Fisher Scientific
Method: as §2

[6] = XTT proliferation / drug combination assay; conditions: human; remark: listed apart in the source

T1 sequence (P33261 whole entry): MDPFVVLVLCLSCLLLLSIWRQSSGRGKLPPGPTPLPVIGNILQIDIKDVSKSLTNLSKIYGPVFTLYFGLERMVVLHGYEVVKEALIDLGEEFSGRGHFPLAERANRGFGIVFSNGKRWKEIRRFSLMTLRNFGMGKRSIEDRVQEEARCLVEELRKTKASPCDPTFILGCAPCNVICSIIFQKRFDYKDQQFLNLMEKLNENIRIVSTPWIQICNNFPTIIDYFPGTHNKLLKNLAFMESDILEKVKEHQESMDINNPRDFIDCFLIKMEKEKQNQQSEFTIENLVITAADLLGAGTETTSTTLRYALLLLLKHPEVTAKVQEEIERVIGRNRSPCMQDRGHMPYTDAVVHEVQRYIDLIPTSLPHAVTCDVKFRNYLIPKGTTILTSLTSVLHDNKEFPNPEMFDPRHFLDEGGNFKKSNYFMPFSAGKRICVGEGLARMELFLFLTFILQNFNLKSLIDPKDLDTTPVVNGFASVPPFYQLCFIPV
T3 sequence (P10635 whole entry): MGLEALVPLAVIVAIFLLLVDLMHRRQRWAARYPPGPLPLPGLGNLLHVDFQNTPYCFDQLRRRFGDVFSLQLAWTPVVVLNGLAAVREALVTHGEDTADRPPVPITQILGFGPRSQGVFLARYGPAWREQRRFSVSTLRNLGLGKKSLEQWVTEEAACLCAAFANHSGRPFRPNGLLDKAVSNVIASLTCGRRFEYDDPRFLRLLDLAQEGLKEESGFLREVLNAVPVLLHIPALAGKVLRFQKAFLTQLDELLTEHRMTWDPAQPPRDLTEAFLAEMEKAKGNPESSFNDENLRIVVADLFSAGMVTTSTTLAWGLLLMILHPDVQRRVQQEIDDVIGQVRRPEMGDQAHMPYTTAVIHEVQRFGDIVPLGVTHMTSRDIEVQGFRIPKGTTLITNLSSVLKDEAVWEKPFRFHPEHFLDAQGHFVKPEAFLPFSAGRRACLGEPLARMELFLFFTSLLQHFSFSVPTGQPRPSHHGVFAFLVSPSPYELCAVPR
T5 sequence (P20813 whole entry): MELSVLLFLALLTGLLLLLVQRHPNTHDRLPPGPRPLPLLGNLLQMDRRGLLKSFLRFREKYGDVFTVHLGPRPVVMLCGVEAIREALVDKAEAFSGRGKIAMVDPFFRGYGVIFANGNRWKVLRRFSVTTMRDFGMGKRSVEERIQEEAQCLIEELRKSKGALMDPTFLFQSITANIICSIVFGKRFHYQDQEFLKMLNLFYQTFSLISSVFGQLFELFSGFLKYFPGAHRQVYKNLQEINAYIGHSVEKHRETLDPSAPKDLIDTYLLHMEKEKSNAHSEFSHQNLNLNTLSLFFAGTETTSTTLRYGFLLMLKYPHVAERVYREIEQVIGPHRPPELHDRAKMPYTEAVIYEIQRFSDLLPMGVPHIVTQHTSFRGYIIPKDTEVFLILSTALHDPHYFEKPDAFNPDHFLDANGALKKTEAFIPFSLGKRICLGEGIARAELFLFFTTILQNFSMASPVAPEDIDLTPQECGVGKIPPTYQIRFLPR
T2 sequence (P20815 whole entry): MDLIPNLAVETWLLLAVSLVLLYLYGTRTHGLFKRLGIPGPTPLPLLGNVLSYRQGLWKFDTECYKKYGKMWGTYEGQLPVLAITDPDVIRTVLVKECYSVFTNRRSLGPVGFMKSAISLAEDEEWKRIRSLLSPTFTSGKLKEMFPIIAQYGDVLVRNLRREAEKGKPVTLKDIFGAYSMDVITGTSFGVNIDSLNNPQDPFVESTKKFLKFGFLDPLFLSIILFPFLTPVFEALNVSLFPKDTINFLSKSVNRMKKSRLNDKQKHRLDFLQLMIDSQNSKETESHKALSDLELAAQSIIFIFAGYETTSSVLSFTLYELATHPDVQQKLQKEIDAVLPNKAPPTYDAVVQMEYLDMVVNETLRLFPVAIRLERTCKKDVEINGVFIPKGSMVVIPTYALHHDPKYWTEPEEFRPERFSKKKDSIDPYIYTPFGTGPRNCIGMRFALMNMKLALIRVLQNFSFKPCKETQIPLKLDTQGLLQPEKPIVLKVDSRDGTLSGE
ABCB1, sequence (P08183 whole entry): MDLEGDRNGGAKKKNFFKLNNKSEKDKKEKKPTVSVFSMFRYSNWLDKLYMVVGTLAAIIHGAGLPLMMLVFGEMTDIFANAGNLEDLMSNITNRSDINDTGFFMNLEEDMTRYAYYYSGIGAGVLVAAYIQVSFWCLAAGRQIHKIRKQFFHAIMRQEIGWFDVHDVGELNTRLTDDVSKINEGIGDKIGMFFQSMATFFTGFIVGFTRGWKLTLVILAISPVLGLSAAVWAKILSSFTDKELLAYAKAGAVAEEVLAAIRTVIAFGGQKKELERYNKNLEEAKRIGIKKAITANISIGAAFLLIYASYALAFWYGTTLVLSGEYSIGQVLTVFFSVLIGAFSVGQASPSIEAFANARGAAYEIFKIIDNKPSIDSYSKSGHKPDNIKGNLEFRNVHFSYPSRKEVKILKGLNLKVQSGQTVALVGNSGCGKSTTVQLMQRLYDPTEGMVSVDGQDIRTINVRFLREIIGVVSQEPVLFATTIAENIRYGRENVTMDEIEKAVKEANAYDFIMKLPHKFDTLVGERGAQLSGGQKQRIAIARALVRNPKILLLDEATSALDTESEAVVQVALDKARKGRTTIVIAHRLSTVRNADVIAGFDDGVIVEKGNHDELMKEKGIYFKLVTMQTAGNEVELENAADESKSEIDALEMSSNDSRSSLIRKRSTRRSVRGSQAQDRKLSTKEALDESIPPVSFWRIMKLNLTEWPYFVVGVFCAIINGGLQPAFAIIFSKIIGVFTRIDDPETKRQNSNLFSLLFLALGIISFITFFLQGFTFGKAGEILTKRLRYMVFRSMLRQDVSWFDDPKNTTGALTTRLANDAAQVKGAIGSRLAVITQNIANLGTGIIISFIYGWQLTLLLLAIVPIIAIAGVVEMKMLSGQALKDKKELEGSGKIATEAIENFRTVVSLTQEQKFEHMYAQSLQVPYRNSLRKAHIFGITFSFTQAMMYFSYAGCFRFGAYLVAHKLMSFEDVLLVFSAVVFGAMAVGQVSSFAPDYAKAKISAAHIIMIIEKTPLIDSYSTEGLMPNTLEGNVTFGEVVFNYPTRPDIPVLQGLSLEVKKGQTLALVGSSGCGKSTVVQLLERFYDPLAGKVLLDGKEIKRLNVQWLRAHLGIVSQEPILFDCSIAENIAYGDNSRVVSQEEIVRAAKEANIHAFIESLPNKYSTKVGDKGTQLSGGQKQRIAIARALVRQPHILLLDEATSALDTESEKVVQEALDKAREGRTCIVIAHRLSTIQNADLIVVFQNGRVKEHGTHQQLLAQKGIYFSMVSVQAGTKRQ

In the case of `CN1CCC(COc2cnc(-c3cccc(Cn4nc(-c5cccc(C#N)c5)ccc4=O)c3)nc2)CC1` [tepotinib, Tepotinib], the IC50 (A431-ABCC1 cells) is listed as 16.2 µM, the IC50 (CYP2C19) is listed as 16.9 µM and the “Effect on AUC and Cmax of ABCB1 substrate dabigatran etexilate” value (ABCB1) is listed as “significantly increased AUC and Cmax”. The IC50 (CYP3A5) was 38.8 µM, the “Effect on anticancer effect of paclitaxel and vincristine” value [1] was “potentiate the anticancer effect of paclitaxel and vincristine” and the IC50 (HL60-par cells) was 19.5 µM. For the same compound, the IC50 (HL60-ABCC1 cells) was 20 µM, the IC50 (CYP2D6) was greater than 50 µM and the “Effect on CYP3A4 substrate midazolam” value (CYP3A4) was “failed to exert the effect”. For the same compound, the IC50 (A431-par cells) was 15.7 µM, the IC50 at 48 h [2] was 16.4 µM and the IC50 at 48 h [3] was 16.5 µM. For the same compound, the Cmax [4] was 2620 nM, the IC50 at 48 h [5] was 19.6 µM and the IC50 (ABCG2; 5 µM mitoxantrone, 1 h, read-out: IC50, relative mitoxantrone accumulation) was 29.9 µM. The IC50 (ABCG2; 8 µM hoechst 33342, read-out: IC50, relative Hoechst 33342 accumulation) was 15.8 µM, the IC50 (CYP2B6) was greater than 50 µM and the IC50 at 48 h [6] was 19.4 µM.
